Values quoted from earlier work in US10017479B2, “Process to make non nucleosidal reverse transcriptase inhibitors (NNRTI) for the treatment of HIV” (priority 2013, dated 2018).

Tests used:
[1] = tested on: wild type strains of HIV-1

## O=C(CSc1nnnn1-c1cccc2ccccc12)Nc1ccccc1[N+](=O)[O-] [compound 3, 2-((1-(naphthalen-1-yl)-1H-tetrazol-5-yl)thio)-N-(2-nitrophenyl)actetamid-e]
[1]
  activity against the wild type strains of HIV-1: nanomolar activity
Mutated strains of HIV-1
  activity against the mutated strains of HIV-1: nanomolar activity
